In patent US8916567B2, “Certain crystalline hydrates, pharmaceutical compositions thereof and methods for preparation and use thereof” (Universal Technology Alliance, Inc., priority 2009, dated 2014):

How the values were obtained:
[1] = Solubility in different solvents according to Chinese Pharmacopeia (2005 edition); type: physicochemical; conditions: for Result: at the given solute:solvent ratio
Method: The solubility of the (S)—[N-3-(3′-fluoro-4′-(4″-phenylpiperazinyl))phenyl-2-oxo-5-oxazolelidinyl]methylacetamide hydrates was tested with different solvents, and the test results are shown in Tables 15-19. The solubility was measured according to Chinese Pharmacopeia (2005 edition).

[2] = test system: Staphylococcus aureus MRSA; experiment: Minimum inhibitory concentration (MIC) in vitro, agar dilution method; type: cell-based; conditions: hydrate
How it was run: (§1)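 Agar dilution MIC per CLSI/NCCLS method against clinical isolates collected in Sichuan and Beijing, 2007-2008. Compounds dissolved in DMSO, diluted in sterile water; vancomycin and linezolid as controls. Per-strain MICs reported alongside MIC50, MIC90 and MIC range.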

E. feacalis = experiment: as above; type: cell-based; conditions: hydrate
How it was run: as §1

[3] = test system: Staphylococcus aureus MSSA; experiment: as above; type: cell-based; conditions: hydrate
How it was run: as §1

E. feacium = experiment: as above; type: cell-based; conditions: hydrate
How it was run: as §1

S. epidermidis MSSE = experiment: as above; type: cell-based; conditions: hydrate
How it was run: as §1

S. epidermidis MRSE = experiment: as above; type: cell-based; conditions: hydrate
How it was run: as §1

Staphylococcus aureus = experiment: Minimum inhibitory concentration (MIC) in vitro, agar dilution method, quality control strain; type: cell-based; conditions: strain S. AT C C25923 (Table 7 No. 1); hydrate
How it was run: as §1

[4] = S. MRSA (10 strains), clinically isolated
[5] = E. feacalis (5 strains), clinically isolated
[6] = S. MSSA (11 strains), clinically isolated
[7] = E. feacium (5 strains), clinically isolated
[8] = S. ep MSSE (10 strains), clinically isolated
[9] = S. ep MRSE (10 strains), clinically isolated

CC(=O)NC[C@H]1CN(c2ccc(N3CCN(c4ccccc4)CC3)c(F)c2)C(=O)O1 [⅖ hydrate, (S)—[N-3-(3′-fluoro-4′-(4″-phenylpiperazinyl))phenyl-2-oxo-5-oxazolidinyl]methyl acetamide 2/5 hydrate]
Solubility compared with the anhydride ([1]; different solvents): sometimes more soluble than the anhydride
Result ([1]; solvent 0.1N Hydrochloric acid): Dissolved
Result ([1]; solvent 0.1N Sodium hydroxide): Insoluble
Result ([1]; solvent Acetonitrile): Dissolved
Result ([1]; solvent Ethanol): Dissolved
Result ([1]; solvent Methanol): Dissolved
Result ([1]; solvent Water, hydrate): Dissolved
MIC50 [2, 4]: 1 µg/mL
MIC90 [2, 4]: 0.5 µg/mL
MICrange [2, 4]: 0.25 to 0.5 µg/mL
MIC ([2]; strain S. MRSA 29 (Table 7 No. 15)): 0.5 µg/mL
MIC ([2]; strain S. MRSA 101 (Table 7 No. 14)): 0.5 µg/mL
MIC ([2]; strain S. MRSA 201 (Table 7 No. 13)): 0.5 µg/mL
MIC ([2]; strain S. MRSA B27 (Table 7 No. 21)): 0.5 µg/mL
MIC ([2]; strain S. MRSA B105 (Table 7 No. 17)): 0.5 µg/mL
MIC ([2]; strain S. MRSA B143 (Table 7 No. 19)): 0.5 µg/mL
MIC ([2]; strain S. MRSA B151 (Table 7 No. 20)): 0.25 µg/mL
MIC ([2]; strain S. MRSA B164 (Table 7 No. 16)): 0.5 µg/mL
MIC ([2]; strain S. MRSA B199 (Table 7 No. 22)): 0.5 µg/mL
MIC ([2]; strain S. MRSA B617 (Table 7 No. 18)): 0.5 µg/mL
MIC50 (E. feacalis; [5]): 0.5 µg/mL
MIC90 (E. feacalis; [5]): 0.5 µg/mL
MICrange (E. feacalis; [5]): 0.125 to 0.5 µg/mL
MIC (E. feacalis; strain Efa 116 (Table 8 No. 16)): 0.5 µg/mL
MIC (E. feacalis; strain Efa 907 (Table 8 No. 19)): 0.5 µg/mL
MIC (E. feacalis; strain Efa 3006 (Table 8 No. 18)): 0.25 µg/mL
MIC (E. feacalis; strain Efa 33748 (Table 8 No. 17)): 0.5 µg/mL
MIC50 [3, 6]: 0.5 µg/mL
MIC90 [3, 6]: 0.5 µg/mL
MICrange [3, 6]: 0.5 to 1 µg/mL
MIC ([3]; strain S. MSSA 123 (Table 7 No. 3)): 0.5 µg/mL
MIC ([3]; strain S. MSSA 187 (Table 7 No. 7)): 0.5 µg/mL
MIC ([3]; strain S. MSSA 195 (Table 7 No. 6)): 1 µg/mL
MIC ([3]; strain S. MSSA 195 (Table 7 No. 12)): 0.5 µg/mL
MIC ([3]; strain S. MSSA 201 (Table 7 No. 11)): 0.5 µg/mL
MIC ([3]; strain S. MSSA 232 (Table 7 No. 2)): 0.5 µg/mL
MIC ([3]; strain S. MSSA 275 (Table 7 No. 10)): 0.5 µg/mL
MIC ([3]; strain S. MSSA 466 (Table 7 No. 8)): 0.5 µg/mL
MIC ([3]; strain S. MSSA 519 (Table 7 No. 9)): 0.5 µg/mL
MIC ([3]; strain S. MSSA 520 (Table 7 No. 4)): 0.5 µg/mL
MIC ([3]; strain S. MSSA 580 (Table 7 No. 5)): 0.5 µg/mL
MIC50 (E. feacium; [7]): 1 µg/mL
MIC90 (E. feacium; [7]): 1 µg/mL
MICrange (E. feacium; [7]): 0.5 to 1 µg/mL
MIC (E. feacium; strain Efm 98 (Table 8 No. 21)): 0.5 µg/mL
MIC (E. feacium; strain Efm 171 (Table 8 No. 25)): 0.5 µg/mL
MIC (E. feacium; strain Efm 197 (Table 8 No. 22)): 1 µg/mL
MIC (E. feacium; strain Efm N3 (Table 8 No. 23)): 1 µg/mL
MIC (E. feacium; strain Efm N4 (Table 8 No. 24)): 1 µg/mL
MIC50 (S. epidermidis MSSE; [8]): 0.5 µg/mL
MIC90 (S. epidermidis MSSE; [8]): 0.5 µg/mL
MICrange (S. epidermidis MSSE; [8]): 0.125 to 0.5 µg/mL
MIC (S. epidermidis MSSE; strain S. ep MSSE87 (Table 7 No. 23)): 0.125 µg/mL
MIC (S. epidermidis MSSE; strain S. ep MSSE88 (Table 8 No. 5)): 0.5 µg/mL
MIC (S. epidermidis MSSE; strain S. ep MSSE113 (Table 7 No. 24)): 0.5 µg/mL
MIC (S. epidermidis MSSE; strain S. ep MSSE116 (Table 7 No. 25)): 0.5 µg/mL
MIC (S. epidermidis MSSE; strain S. ep MSSE118 (Table 8 No. 2)): 0.5 µg/mL
MIC (S. epidermidis MSSE; strain S. ep MSSE119 (Table 7 No. 27)): 0.125 µg/mL
MIC (S. epidermidis MSSE; strain S. ep MSSE137 (Table 8 No. 4)): 0.5 µg/mL
MIC (S. epidermidis MSSE; strain S. ep MSSE140 (Table 8 No. 3)): 0.5 µg/mL
MIC (S. epidermidis MSSE; strain S. ep MSSE142 (Table 7 No. 26)): 0.25 µg/mL
MIC (S. epidermidis MSSE; strain S. ep MSSE153 (Table 8 No. 1)): 0.5 µg/mL
MIC50 (S. epidermidis MRSE; [9]): 0.5 µg/mL
MIC90 (S. epidermidis MRSE; [9]): 0.5 µg/mL
MICrange (S. epidermidis MRSE; [9]): 0.125 to 0.5 µg/mL
MIC (S. epidermidis MRSE; strain S. ep MRSE4 (Table 8 No. 9)): 0.5 µg/mL
MIC (S. epidermidis MRSE; strain S. ep MRSE20 (Table 8 No. 6)): 0.5 µg/mL
MIC (S. epidermidis MRSE; strain S. ep MRSE87 (Table 8 No. 13)): 0.5 µg/mL
MIC (S. epidermidis MRSE; strain S. ep MRSE90 (Table 8 No. 10)): 0.5 µg/mL
MIC (S. epidermidis MRSE; strain S. ep MRSE101 (Table 8 No. 7)): 0.125 µg/mL
MIC (S. epidermidis MRSE; strain S. ep MRSE105 (Table 8 No. 11)): 0.5 µg/mL
MIC (S. epidermidis MRSE; strain S. ep MRSE140 (Table 8 No. 14)): 0.5 µg/mL
MIC (S. epidermidis MRSE; strain S. ep MRSE142 (Table 8 No. 12)): 0.5 µg/mL
MIC (S. epidermidis MRSE; strain S. ep MRSE210 (Table 8 No. 15)): 0.5 µg/mL
MIC (S. epidermidis MRSE; strain S. ep MRSE211 (Table 8 No. 8)): 0.5 µg/mL
MIC (Staphylococcus aureus): 0.5 µg/mL
